Earlier results in patent US9974767B2, “Statins in the treatment of muscular dystrophies and myopathies” (University of Washington, priority 2014, dated 2018).

Details: food intake; cited from earlier work

SMILES | absorption when consumed with food
CC(C)c1nc(N(C)S(C)(=O)=O)nc(-c2ccc(F)cc2)c1/C=C/[C@@H](O)C[C@@H](O)CC(=O)O [rosuvastatin] | not affected
CC[C@H](C)C(=O)O[C@H]1C[C@H](O)C=C2C=C[C@H](C)[C@H](CC[C@@H](O)C[C@@H](O)CC(=O)O)[C@H]21 [pravastatin] | reduced absorption
CC[C@H](C)C(=O)O[C@H]1C[C@@H](C)C=C2C=C[C@H](C)[C@H](CC[C@@H]3C[C@@H](O)CC(=O)O3)[C@H]21 [lovastatin] | more efficiently absorbed
COCc1c(C(C)C)nc(C(C)C)c(/C=C/[C@@H](O)C[C@@H](O)CC(=O)O)c1-c1ccc(F)cc1 [cerivastatin] | not affected
CC(C)n1c(/C=C/C(O)CC(O)CC(=O)O)c(-c2ccc(F)cc2)c2ccccc21 (centres unmarked) [fluvastatin] | reduced absorption
